Measurements: ChEMBL document CHEMBL1129317, “Novel selective and partial agonists of 5-HT3 receptors. Part 1. Synthesis and biological evaluation of piperazinopyrrolothienopyrazines” (J Med Chem, 1996)

Assays:
[1] = target: Cysteinyl leukotriene receptor 1 (Homo sapiens) (UniProt Q9Y271); assay: Inhibitory activity against Cysteinyl leukotriene D4 receptor using [3H]- LTD4 at […] (M)
[2] = target: Adenosine receptor A1 (Homo sapiens) (UniProt P30542); assay: Inhibitory activity against Adenosine A1 receptor using [3H]DPCPX at […] (M)
Adenosine receptor A1 (Homo sapiens), sequence (P30542 whole entry): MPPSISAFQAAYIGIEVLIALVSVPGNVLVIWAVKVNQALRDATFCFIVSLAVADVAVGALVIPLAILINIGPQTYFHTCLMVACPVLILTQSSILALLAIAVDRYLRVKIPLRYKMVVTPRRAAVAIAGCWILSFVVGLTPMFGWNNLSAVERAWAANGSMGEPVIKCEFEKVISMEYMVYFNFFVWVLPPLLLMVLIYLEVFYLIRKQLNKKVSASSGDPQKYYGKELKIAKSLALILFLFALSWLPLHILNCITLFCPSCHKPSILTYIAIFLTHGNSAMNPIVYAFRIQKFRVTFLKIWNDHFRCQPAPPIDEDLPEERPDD

[3] = Inhibitory activity against VIP using [125]VIP at 10e-5 (M)
[4] = target: T1, Serotonin 3 (5-HT3) receptor (Rattus norvegicus, UniProt P35563+Q9JJ16); assay: Binding affinity towards 5-hydroxytryptamine 3 receptor; type: protein-complex assay
T1 sequence (P35563 whole entry): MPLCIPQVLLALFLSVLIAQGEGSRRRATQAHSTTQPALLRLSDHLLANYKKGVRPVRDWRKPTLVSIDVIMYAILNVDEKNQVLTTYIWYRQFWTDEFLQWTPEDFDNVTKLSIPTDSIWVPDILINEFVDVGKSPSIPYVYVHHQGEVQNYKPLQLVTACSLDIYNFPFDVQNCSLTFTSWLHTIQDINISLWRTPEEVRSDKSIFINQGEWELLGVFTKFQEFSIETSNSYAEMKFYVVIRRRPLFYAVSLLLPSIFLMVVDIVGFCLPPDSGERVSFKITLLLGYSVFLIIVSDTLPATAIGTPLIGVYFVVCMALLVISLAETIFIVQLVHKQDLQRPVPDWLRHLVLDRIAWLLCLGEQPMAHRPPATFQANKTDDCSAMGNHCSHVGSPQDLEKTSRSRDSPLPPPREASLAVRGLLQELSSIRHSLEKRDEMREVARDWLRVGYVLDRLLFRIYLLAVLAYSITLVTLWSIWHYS
T1 sequence (Q9JJ16 whole entry): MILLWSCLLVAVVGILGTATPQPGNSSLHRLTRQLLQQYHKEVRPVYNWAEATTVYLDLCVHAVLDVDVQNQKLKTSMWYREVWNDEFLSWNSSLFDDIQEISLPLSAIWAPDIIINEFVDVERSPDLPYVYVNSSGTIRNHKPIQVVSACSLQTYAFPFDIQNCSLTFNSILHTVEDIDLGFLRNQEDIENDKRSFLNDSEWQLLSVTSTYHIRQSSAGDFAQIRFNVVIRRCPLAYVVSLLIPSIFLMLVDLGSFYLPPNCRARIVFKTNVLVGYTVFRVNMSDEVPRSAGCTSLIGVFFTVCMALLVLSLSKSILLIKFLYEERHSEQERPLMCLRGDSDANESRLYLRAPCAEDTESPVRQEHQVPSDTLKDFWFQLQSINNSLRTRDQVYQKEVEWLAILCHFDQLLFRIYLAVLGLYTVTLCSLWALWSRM

[5] = target: Glutamate receptor ionotropic AMPA (Homo sapiens) (UniProt P48058+P42263+P42262+P42261); assay: Inhibitory activity against Quisqualate receptor using [3H]AMPA at […] (M); type: protein-complex assay
[6] = target: Adenosine A2 receptor (Homo sapiens) (UniProt P29275+P29274); assay: Inhibitory activity against Adenosine A2 receptor using [3H]CGS-21680 at […] (M); type: protein assay
[7] = target: 5-hydroxytryptamine receptor 1D (Sus scrofa, UniProt P79400); assay: Binding affinity for 5-hydroxytryptamine 1D receptor
5-hydroxytryptamine receptor 1D, sequence (P79400 whole entry): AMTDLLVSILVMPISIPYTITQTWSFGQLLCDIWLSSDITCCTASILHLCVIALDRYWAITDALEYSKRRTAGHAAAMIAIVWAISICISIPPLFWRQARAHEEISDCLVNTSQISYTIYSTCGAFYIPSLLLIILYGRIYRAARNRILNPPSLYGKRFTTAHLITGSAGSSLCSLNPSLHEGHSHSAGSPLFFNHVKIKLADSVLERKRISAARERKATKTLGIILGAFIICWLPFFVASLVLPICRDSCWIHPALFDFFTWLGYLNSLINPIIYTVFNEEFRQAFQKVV

[8] = Inhibition of [3H]batrachotoxin binding to sodium channel at 10e-5 M
[9] = target: Glutamate [NMDA] receptor (Homo sapiens) (UniProt Q05586+Q12879+Q13224+O15399+O60391+Q14957+Q8TCU5); assay: Inhibitory activity against Phencyclidine receptor using [3H]-TCP at […] (M); type: protein-complex assay
[10] = Inhibitory activity against Bradykinin receptor using [3H]bradykinin at […] (M)
[11] = target: T2, 5-hydroxytryptamine receptor 1A (Homo sapiens, UniProt P08908); assay: Binding affinity for 5-hydroxytryptamine 1A receptor
T2 sequence (P08908 whole entry): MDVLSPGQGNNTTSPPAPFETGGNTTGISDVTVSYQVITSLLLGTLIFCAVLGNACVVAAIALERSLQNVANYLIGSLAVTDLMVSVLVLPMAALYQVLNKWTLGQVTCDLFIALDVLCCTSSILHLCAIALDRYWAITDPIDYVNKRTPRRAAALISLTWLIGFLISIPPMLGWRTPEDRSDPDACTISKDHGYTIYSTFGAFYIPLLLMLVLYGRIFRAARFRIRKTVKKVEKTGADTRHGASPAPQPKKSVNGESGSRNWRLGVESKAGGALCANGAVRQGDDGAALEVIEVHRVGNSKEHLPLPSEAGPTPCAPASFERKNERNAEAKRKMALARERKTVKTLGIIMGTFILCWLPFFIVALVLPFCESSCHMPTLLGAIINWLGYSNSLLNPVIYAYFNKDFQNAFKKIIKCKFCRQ

[12] = target: Platelet-activating factor receptor (Homo sapiens) (UniProt P25105); assay: Inhibitory activity against Platelet activating factor receptor using [3H]PAF at […] (M)
Platelet-activating factor receptor (Homo sapiens), sequence (P25105 whole entry): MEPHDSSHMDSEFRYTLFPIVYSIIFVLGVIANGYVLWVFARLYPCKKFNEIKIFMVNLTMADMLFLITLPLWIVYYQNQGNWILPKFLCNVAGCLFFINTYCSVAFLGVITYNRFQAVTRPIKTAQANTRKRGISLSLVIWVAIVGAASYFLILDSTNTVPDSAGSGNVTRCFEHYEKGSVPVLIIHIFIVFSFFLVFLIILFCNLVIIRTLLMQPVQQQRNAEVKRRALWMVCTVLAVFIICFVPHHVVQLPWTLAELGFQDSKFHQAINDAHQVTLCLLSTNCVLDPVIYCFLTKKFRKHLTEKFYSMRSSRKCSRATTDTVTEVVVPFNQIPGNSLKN

[13] = Inhibition of [3H]PK11195 binding to peripheral Benzodiazepine receptor at 10e-5 M
[14] = target: D(2) dopamine receptor (Homo sapiens) (UniProt P14416); assay: In vitro displacement from Dopamine receptor D2; settings: concentration not given here
D(2) dopamine receptor (Homo sapiens), sequence (P14416 whole entry): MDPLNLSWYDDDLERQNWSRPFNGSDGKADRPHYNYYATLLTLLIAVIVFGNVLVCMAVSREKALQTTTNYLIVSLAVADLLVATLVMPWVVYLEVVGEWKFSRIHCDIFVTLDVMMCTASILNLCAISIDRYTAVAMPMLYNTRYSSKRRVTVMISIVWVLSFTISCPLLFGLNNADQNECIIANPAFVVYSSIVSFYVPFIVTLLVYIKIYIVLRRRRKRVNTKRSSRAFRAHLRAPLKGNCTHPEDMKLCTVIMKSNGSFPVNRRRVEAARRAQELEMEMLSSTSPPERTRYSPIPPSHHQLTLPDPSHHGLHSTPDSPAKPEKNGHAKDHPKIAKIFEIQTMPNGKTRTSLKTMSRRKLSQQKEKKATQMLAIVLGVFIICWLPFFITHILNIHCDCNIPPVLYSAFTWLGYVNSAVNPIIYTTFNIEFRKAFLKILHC

[15] = target: Delta-type opioid receptor (Rattus norvegicus) (UniProt P33533); assay: Inhibitory activity against Opioid receptor delta 1 using [3H]Cl-phe-DPDPE at 10e-5 (M)
Delta-type opioid receptor (Rattus norvegicus), sequence (P33533 whole entry): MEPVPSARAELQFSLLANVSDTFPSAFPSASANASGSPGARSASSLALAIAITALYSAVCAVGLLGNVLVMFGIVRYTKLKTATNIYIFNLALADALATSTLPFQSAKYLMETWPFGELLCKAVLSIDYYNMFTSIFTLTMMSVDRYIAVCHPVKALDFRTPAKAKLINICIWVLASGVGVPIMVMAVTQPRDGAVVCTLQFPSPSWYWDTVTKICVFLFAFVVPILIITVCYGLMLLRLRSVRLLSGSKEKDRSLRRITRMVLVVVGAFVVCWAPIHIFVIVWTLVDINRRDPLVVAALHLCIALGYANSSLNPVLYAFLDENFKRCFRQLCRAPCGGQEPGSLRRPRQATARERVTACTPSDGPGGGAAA

[16] = target: Adrenergic receptor alpha-1 (Homo sapiens) (UniProt P35348+P25100+P35368); assay: Inhibitory activity against Alpha-1 adrenergic receptor using [3H]-prazosin at 10e-5 (M); type: protein assay
[17] = target: Neuropeptide Y receptor type 1 (Homo sapiens) (UniProt P25929); assay: Inhibitory activity against Neuropeptide Y receptor type 1 using [3H]-NPY at 10e5 (M)
Neuropeptide Y receptor type 1 (Homo sapiens), sequence (P25929 whole entry): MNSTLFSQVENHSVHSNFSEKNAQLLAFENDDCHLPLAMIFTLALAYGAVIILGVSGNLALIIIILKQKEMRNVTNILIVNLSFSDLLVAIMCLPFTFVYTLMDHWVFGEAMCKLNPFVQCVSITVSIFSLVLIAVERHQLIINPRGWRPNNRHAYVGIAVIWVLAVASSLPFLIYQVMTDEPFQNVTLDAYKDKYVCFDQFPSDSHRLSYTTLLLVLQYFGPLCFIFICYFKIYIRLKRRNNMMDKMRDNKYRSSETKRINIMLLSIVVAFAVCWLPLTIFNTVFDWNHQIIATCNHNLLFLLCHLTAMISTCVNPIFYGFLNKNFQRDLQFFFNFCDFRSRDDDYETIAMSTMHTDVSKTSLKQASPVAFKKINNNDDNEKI

[18] = tested on: NG108-15; assay: In vitro effective concentration against [14C]guanidinium uptake into NG 108-15 cells; type: functional, cell-based; settings: Murinae

Cysteinyl leukotriene receptor 1 (Homo sapiens), sequence (Q9Y271 whole entry): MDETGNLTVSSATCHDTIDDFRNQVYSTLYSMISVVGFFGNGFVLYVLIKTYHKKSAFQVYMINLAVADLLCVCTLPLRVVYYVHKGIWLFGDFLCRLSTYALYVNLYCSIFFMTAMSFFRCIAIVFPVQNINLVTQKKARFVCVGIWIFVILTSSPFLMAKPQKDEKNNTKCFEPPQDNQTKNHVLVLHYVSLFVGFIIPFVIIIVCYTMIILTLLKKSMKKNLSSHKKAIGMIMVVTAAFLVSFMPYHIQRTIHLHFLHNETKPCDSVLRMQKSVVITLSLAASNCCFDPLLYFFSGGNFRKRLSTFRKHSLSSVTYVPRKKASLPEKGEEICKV

## c1ccc(CN2CCN(c3nc4ccsc4n4cccc34)CC2)cc1
[1]
  inhibition: 1%
[2]
  inhibition: 23%
[3]
  inhibition: 6%
[4]
  IC50: 1.41 nM
[5]
  inhibition: 24%
[6]
  inhibition: 4%
[7]
  IC50: 14100 nM
[8]
  inhibition: 79%
[9]
  inhibition: 10%
[10]
  inhibition: 28%
[11]
  IC50: 398 nM
[12]
  inhibition: 2%
[13]
  inhibition: 34%
[14]
  inhibition: 86%
[15]
  inhibition: 14%
[16]
  inhibition: 26%
[17]
  inhibition: 4%
[18]
  EC50: 10 nM
